# Patent US11390604B2 (Hoffmann-La Roche Inc., priority 2019, dated 2022)
# Counter-ions that a name gives are not always drawn.
# Test system: Acinetobacter baumannii ATCC 17961
# Experiment: Antimicrobial susceptibility testing: 90% growth inhibitory concentration (IC90) determination
# Assay type: cell-based
# Conditions: ATCC17961, Acinetobacter baumannii ATCC 17961, Iso-Sensitest broth, read-out: ATCC 17961 IC90
# Summary of the method: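 Broth microdilution in Iso-Sensitest medium, twofold series (e.g. 50 to 0.097 μM final), ~5×10^5 CFU/ml inoculum, 35±2 °C. OD600 read every 20 min over 16 h. IC90 derived from growth inhibition during logarithmic phase.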
row,IC90 [nM],SMILES
1,377,"CSc1ccc(NC(=O)c2ncc(-c3cn(CC(F)F)nc3C(F)(F)F)n2C)cc1C [Example 308, 5-[1-(2,2-difluoroethyl)-3-(trifluoromethyl)pyrazol-4-yl]-1-methyl-N-(3-methyl-4-methylsulfanyl-phenyl)imidazole-2-carboxamide]"
2,378,"Cn1c(-c2cn(C3CC3)nc2C(F)(F)F)cnc1C(=O)Nc1ccc(C(=O)N2CCN(C(=O)CC3CCNCC3)CC2)c(Cl)c1 [Example 309, N-(3-chloro-4-(4-(2-(piperidin-4-yl)acetyl)piperazine-1-carbonyl)phenyl)-5-(1-cyclopropyl-3-(trifluoromethyl)-1H-pyrazol-4-yl)-1-methyl-1H-imidazole-2-carboxamide hydrochloride]"
3,382,"Cn1c(-c2cn(C3CC3)nc2C(F)(F)F)cnc1C(=O)Nc1ccc(C(=O)N2CCN(C(=O)C3CNCCC3O)CC2)c(Cl)c1 (stereo not shown) [Example 311, N-[3-chloro-4-[4-(4-hydroxypiperidine-3-carbonyl)piperazine-1-carbonyl]phenyl]-5-[1-cyclopropyl-3-(trifluoromethyl)pyrazol-4-yl]-1-methylimidazole-2-carboxamide;hydrochloride]"
4,385,"C/C=C/Cn1cc(-c2cnc(C(=O)Nc3ccc(C(=O)N4CCN(C(=O)C5CCNCC5)CC4)c(Cl)c3)n2C)c(C(F)(F)F)n1 [Example 312, (E)-5-(1-(but-2-en-1-yl)-3-(trifluoromethyl)-1H-pyrazol-4-yl)-N-(3-chloro-4-(4-(piperidine-4-carbonyl)piperazine-1-carbonyl)phenyl)-1-methyl-1H-imidazole-2-carboxamide hydrochloride]"
5,386,"Cn1c(-c2cn(C3CC3)nc2C(F)(F)F)cnc1C(=O)Nc1ccc(C(=O)N2CCN(C(=O)[C@H]3C[C@H](O)CN3)CC2)c(Cl)c1 [Example 313, N-(3-chloro-4-(4-((2R,4S)-4-hydroxypyrrolidine-2-carbonyl)piperazine-1-carbonyl)phenyl)-5-(1-cyclopropyl-3-(trifluoromethyl)-1H-pyrazol-4-yl)-1-methyl-1H-imidazole-2-carboxamide hydrochloride]"
6,388,"Cn1c(-c2cn(C3CC3(F)F)nc2C(F)(F)F)cnc1C(=O)Nc1ccc(C(=O)NCCCCNC(=O)OC(C)(C)C)c(Cl)c1 (stereo not shown) [Example 314, tert-butyl (4-(2-chloro-4-(5-(1-(2,2-difluorocyclopropyl)-3-(trifluoromethyl)-1H-pyrazol-4-yl)-1-methyl-1H-imidazole-2-carboxamido)benzamido)butyl) carbamate]"
7,390,"Cn1c(-c2cn(CC#N)nc2C(F)(F)F)cnc1C(=O)Nc1ccc(C(=O)N[C@H]2C[C@H](NC(=O)[C@@H]3CCNC3)C2)c(Cl)c1 [Example 315, N-[3-chloro-4-[[3-[[(3R)-pyrrolidine-3-carbonyl]amino]cyclobutyl]car-bamoyl]phenyl]-5-[1-(cyanomethyl)-3-(trifluoromethyl)pyrazol-4-yl]-1-methylimidazole-2-carboxamide;formic acid]"
8,392,"Cn1c(-c2cn(CC#N)nc2C(F)(F)F)cnc1C(=O)Nc1ccc(C(=O)N[C@H]2C[C@@H](NC(=O)N3CC[C@@H](N)C3)C2)c(Cl)c1 [Example 316, N-[4-[[3-[[(3R)-3-aminopyrrolidine-1-carbonyl]amino]cyclobutyl]car-bamoyl]-3-chloro-phenyl]-5-[1-(cyanomethyl)-3-(trifluoromethyl)pyrazol-4-yl]-1-methyl-imidazole-2-carboxamide; formic acid]"
9,393,"Cn1c(-c2cn(C3CC3)nc2C(F)(F)F)cnc1C(=O)Nc1ccc(C(=O)NC2CC3(CC(N)C3)C2)c(Cl)c1 (stereo not shown) [Example 317, N-(4-((6-aminospiro[3.3]heptan-2-yl)carbamoyl)-3-chlorophenyl)-5-(1-cyclopropyl-3-(trifluoromethyl)-1H-pyrazol-4-yl)-1-methyl-1H-imidazole-2-carboxamide hydrochloride]"
10,396,"Cn1c(-c2cn(C3CC3)nc2C(F)(F)F)cnc1C(=O)Nc1ccc(C(=O)N2CCN(C(=O)C3(O)CCNC3)CC2)c(Cl)c1 (stereo not shown) [Example 318, N-[3-chloro-4-[4-(3-hydroxypyrrolidine-3-carbonyl)piperazine-1-carbonyl]phenyl]-5-[1-cyclopropyl-3-(trifluoromethyl)pyrazol-4-yl]-1-methylimidazole-2-carboxamide;hydrochloride]"
11,398,"Cn1c(-c2cn(C3CC3(F)F)nc2C(F)(F)F)cnc1C(=O)Nc1ccc(C(=O)NC2CC3CNCC32)c(Cl)c1 (stereo not shown) [Example 319, N-(4-((3-azabicyclo[3.2.0]heptan-6-yl)carbamoyl)-3-chlorophenyl)-5-(1-(2,2-difluorocyclopropyl)-3-(trifluoromethyl)-1H-pyrazol-4-yl)-1-methyl-1H-imidazole-2-carboxamide formate]"
12,403,"Cn1c(-c2cn(C3CC3)nc2C(F)(F)F)cnc1C(=O)Nc1ccc(C(=O)N2CCN(C(=O)NCC3(O)CCNCC3)CC2)c(Cl)c1 [Example 320, 4-(2-chloro-4-(5-(1-cyclopropyl-3-(trifluoromethyl)-1H-pyrazol-4-yl)-1-methyl-1H-imidazole-2-carboxamido)benzoyl)-N-((4-hydroxypiperidin-4-yl)methyl)piperazine-1-carboxamide formate]"
13,403,"Cn1c(-c2cn(C3CC3)nc2C(F)(F)F)cnc1C(=O)Nc1ccc(C(=O)N2CCN(C(=O)[C@@H]3C[C@@H](O)CN3)CC2)c(Cl)c1 [Example 321, N-(3-chloro-4-(4-((2S,4R)-4-hydroxypyrrolidine-2-carbonyl)piperazine-1-carbonyl)phenyl)-5-(1-cyclopropyl-3-(trifluoromethyl)-1H-pyrazol-4-yl)-1-methyl-1H-imidazole-2-carboxamide hydrochloride]"
14,407,"Cn1c(-c2cn(C3CC3)nc2C(F)(F)F)cnc1C(=O)Nc1ccc(C(=O)N[C@H]2[C@@H]3CN(C(=O)N4CC[C@@H](N)C4)C[C@@H]32)c(Cl)c1 [Example 322, N-(4-((exo-3-((R)-3-aminopyrrolidine-1-carbonyl)-3-azabicyclo[3.1.0]hexan-6-yl)carbamoyl)-3-chlorophenyl)-5-(1-cyclopropyl-3-(trifluoromethyl)-1H-pyrazol-4-yl)-1-methyl-1H-imidazole-2-carboxamide formate]"
15,407,"Cn1c(-c2cn(C3CC3)nc2C(F)(F)F)cnc1C(=O)Nc1ccc(C(=O)N2CCC(C3CCNCC3)CC2)c(Cl)c1 [Example 323, N-(4-([4,4′-bipiperidine]-1-carbonyl)-3-chlorophenyl)-5-(1-cyclopropyl-3-(trifluoromethyl)-1H-pyrazol-4-yl)-1-methyl-1H-imidazole-2-carboxamide formate]"
16,408,"C[C@H](N)C(=O)N[C@H]1CC[C@@H](NC(=O)c2ccc(NC(=O)c3ncc(-c4cn(CC#N)nc4C(F)(F)F)n3C)cc2Cl)CC1 [Example 324, N-[4-[[4-[[(2S)-2-aminopropanoyl]amino]cyclo-hexyl]carbamoyl]-3-chlorophenyl]-5-[1-(cyanomethyl)-3-(trifluoromethyl)pyrazol-4-yl]-1-methylimidazole-2-carboxamide;2,2,2-trifluoroacetic acid]"
17,411,"CCn1cc(-c2cnc(C(=O)Nc3ccc(C(=O)N4CCN(C(=O)N[C@H]5C[C@@H](N)C5)CC4)c(Br)c3)n2C)c(C(F)(F)F)n1 [Example 325, rac-N-((is,3s)-3-aminocyclobutyl)-4-(2-bromo-4-(5-(1-ethyl-3-(trifluoromethyl)-1H-pyrazol-4-yl)-1-methyl-1H-imidazole-2-carboxamido)benzoyl)piperazine-1-carboxamidee formate]"
18,411,"Cn1c(-c2cn(CC#N)nc2C(F)(F)F)cnc1C(=O)Nc1ccc(C(=O)N[C@H]2C[C@@H](NC(=O)N3CCCC(N)C3)C2)c(Cl)c1 (stereo partly shown) [Example 326, 3-amino-N-[3-[[2-chloro-4-[[5-[1-(cyanomethyl)-3-(trifluoromethyl)pyrazol-4-yl]-1-methyl-imidazole-2-carbonyl]amino]benzoyl]amino]cyclobutyl]piperidine-1-carboxamide; formic acid]"
19,414,"Cn1c(-c2cn(CC3CCC3)nc2C(F)(F)F)cnc1C(=O)Nc1ccc(C(=O)N2CCN(C(=O)[C@H]3CC[C@@H](N)C3)CC2)c(Cl)c1 [Example 327, N-(4-(4-((1S,3R)-3-aminocyclopentane-1-carbonyl)piperazine-1-carbonyl)-3-chlorophenyl)-5-(1-(cyclobutylmethyl)-3-(trifluoromethyl)-1H-pyrazol-4-yl)-1-methyl-1H-imidazole-2-carboxamide hydrochloride]"
20,420,"Cn1c(-c2cn(CC#N)nc2C(F)(F)F)cnc1C(=O)Nc1ccc(C(=O)N[C@H]2C[C@@H](NC(=O)N3CC4CC3CN4)C2)c(Cl)c1 (stereo partly shown) [Example 328, N-[3-[[2-chloro-4-[[5-[1-(cyanomethyl)-3-(trifluoromethyl)pyrazol-4-yl]-1-methyl-imidazole-2-carbonyl]amino]benzoyl]amino]cyclobutyl]-2,5-diazabicyclo[2.2.1]heptane-2-carboxamide; formic acid]"
21,421,"CCn1cc(-c2cnc(C(=O)Nc3ccc(C(=O)N4CCN(C(=O)CN)CC4)c(Cl)c3)n2C)c(C(F)(F)F)n1 [Example 330, N-[4-[4-(2-aminoacetyl)piperazine-1-carbonyl]-3-chlorophenyl]-5-[1-ethyl-3-(trifluoromethyl)pyrazol-4-yl]-1-methylimidazole-2-carboxamide;hydrochloride]"
22,422,"Cn1c(-c2cn(CCOC(F)(F)F)nc2C(F)(F)F)cnc1C(=O)Nc1ccc(C(=O)N2CCN(C(=O)C3CCNCC3)CC2)c(Cl)c1 [Example 332, N-(3-chloro-4-(4-(piperidine-4-carbonyl)piperazine-1-carbonyl)phenyl)-1-methyl-5-(1-(2-(trifluoromethoxy)ethyl)-3-(trifluoromethyl)-1H-pyrazol-4-yl)-1H-imidazole-2-carboxamide hydrochloride]"
